Patent publication US20210338782A1, “STORAGE STABLE SOMATOSTATIN-DOPAMINE CHIMERIC COMPOUNDS AND SALT FORMS THEREOF” (Cydan II, Inc., priority 2019, published 2021)
Where a name gives a salt, the structure may show the parent alone.

Tests used:
Assay type in all cases: physicochemical
[1] = Photostability of alternative salt forms of lanreotide and TBR-760; details: 1.2 million lux hours visible light or 200 watt hours/square meter UV light, hydrochloride salt
Source text: In order to evaluate the light sensitivity and stability of TBR-760 chimeric peptide salts, all five salt forms were exposed to ultraviolet (UV) and visible light according to International Council for Harmonisation of Technical Requirements for Pharmaceuticals for Human Use (ICH) guideline Q1B for photostability testing. In brief, a Caron 6540-1 photostability chamber unit with separate UV and light chambers was used for the studies. Visible light exposure was 1.2 million lux hours and UV exposure was 200 watt hours/square meter.
Photostability of lanreotide acetate, lanreotide bromide, lanreotide chloride, TBR-760 acetate, TBR-760 bromide and TBR760 chloride was tested according to the methods of Example 7. Four samples were prepared for each salt form: one control for each of the UV and visible light exposure conditions (controls isolated from light) and one sample for exposure to each of the UV and visible light conditions. For each sample, 2-5 mg of the salt was weighed into 3 mL clear serum vials and stoppered. Vials containing control samples were wrapped in aluminum foil.
Following exposure to visible and UV light, all lanreotide and TBR-760 salts were analyzed by UPLC as described in Example 7.

[2] = Solid state (thermolytic) stability of TBR-760 salt forms, open container, UPLC peak purity and appearance
Procedure, shortened: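 About 50 mg of each salt form exposed in open containers at 25° C/60% RH, 40° C/75% RH or 60° C, then stored at −20° C. After 15–20 min equilibration, appearance was noted; samples were dissolved in 0.1% TFA water and diluted to 0.125 mg/mL for UPLC peak purity.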

[3] = Photostability of TBR-760 salt forms (ICH Q1B, visible and UV light), appearance and UPLC purity; details: for degradation upon exposure to visible or UV light, in words: visible and UV light
Procedure, shortened: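 Salt forms in clear sealed vials were exposed per ICH Q1B to 1.2 million lux hours visible and 200 watt hours/square meter UV, alongside foil-wrapped amber dark controls; reference controls were held at −20° C. Samples were inspected visually for appearance, then analysed by UPLC for purity.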

[4] = Thermostability of alternative salt forms of lanreotide and TBR-760 (UPLC); details: for thermostability in words: increasing temperature and humidity (25° C./60% RH, 40° C./75% RH, 60° C.) up to 4 weeks
Procedure: Each TBR-760 salt was further evaluated for thermolytic stability over time by setting up three different exposure conditions (25° C. at 60% relative humidity (RH); 40° C. at 75% RH; or 60° C. with open and closed container systems (open dish/closed dish). Approximately 50 mg of each salt form was weighed in a nitrogen-flushed glove box for use in the studies. All samples were stored at −20° C. in a good laboratory practice (GLP) freezer both before and after exposure to the indicated conditions.
The stability of each salt form was assessed by monitoring the post-exposure drug peak purity and by evaluating the post-exposure visual appearance of the salt. The samples were removed from the exposure conditions and allowed to equilibrate to ambient conditions for 15-20 mins. An appropriate amount of each sample was weighed for analysis and dissolved in diluent (deionized water containing 0.1% TFA) to obtain a stock concentration of 1 mg/mL. The stock solution was then diluted to 0.125 mg/mL in an HPLC vial using diluent and the samples were run on a Waters Acquity UPLC system using the parameters shown in Table 4.
We conducted thermostability studies of lanreotide acetate substantially as described in Example 6. These experiments confirmed that lanreotide acetate is […] when exposed to increasing temperature and humidity conditions over time (FIG. 45). […] (FIG. 45). This degree of thermal and humidity instability is disfavored for a pharmaceutical agent, particularly one intended for patient self-administration at home.
To determine whether a thermostable salt form of TBR-760 could be manufactured, a salt exchange was performed as described in Example 1 to generate bromide and chloride salts of TBR-760. Lanreotide bromide and lanreotide chloride salts were also generated and assessed for thermostability to evaluate the effect of the salt form on compound stability and to compare stability of lanreotide and TBR-760 of each salt.
UPLC assays performed as described in Example 6 were further used to determine the number of degradants—and thus the number of impurities—in each sample. Results showing the purity assessment of each sample following thermostability studies are shown in FIGS. 48A-48B (lanreotide and TBR-760 acetate salts), 49A-49B (lanreotide and TBR-760 bromide salts), and 50A-50B (lanreotide and TBR-760 chloride salts).

[5] = Time and temperature stability of lyophilized TBR-760 salts in sealed glass vials (visual appearance, HPLC); details: for salt form degraded: sealed glass vials, HPLC, hydrochloride salt
Procedure: Lyophilized TBR-760 salts prepared as described above were assessed for stability by visual appearance and HPLC following initial production of the salt and following incubation of the salt at 20° C., 40° C., and 60° C. for 2, 4, and 8 weeks in sealed, glass vials. Changes in visual appearance of the salt were noted by evaluating the color of the substance following each incubation condition. Purity of the salt following each incubation condition was evaluated by HPLC. The number and quantity of degradation products were determined according to the number of absorbance peaks that resulted at different retention times and the size of the peaks.

[6] = Thermogravimetric analysis (TGA) of TBR-760 salt forms; details: ramp 5.0° C. per minute from 25 to 400° C.; hydrochloride salt
Procedure, shortened: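 Each salt form heated from 25 to 400 °C at 5.0 °C per minute while sample weight was recorded, to assess thermal stability.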

[7] = 25° C. at 60% RH, open container
[8] = 40° C. at 75% RH, open container
[9] = 60° C., open dish, hydrochloride salt
[10] = UPLC peak purity, 25° C. at 60% RH, open container, hydrochloride salt
[11] = UPLC peak purity, 40° C. at 75% RH, open container, hydrochloride salt
[12] = UPLC peak purity, 60° C., open dish, hydrochloride salt
[13] = all thermostability conditions, UPLC

CCCN1C[C@H](CSCC(=O)NCCCC[C@@H](NC(=O)CSC[C@@H]2C[C@@H]3c4cccc5[nH]cc(c45)C[C@H]3N(CCC)C2)C(=O)N[C@H]2CSSC[C@@H](C(=O)N[C@H](C(N)=O)[C@@H](C)O)NC(=O)[C@H](CC)NC(=O)[C@H](CCCCN)NC(=O)[C@@H](Cc3c[nH]c4ccccc34)NC(=O)[C@H](Cc3ccc(O)cc3)NC2=O)C[C@@H]2c3cccc4[nH]cc(c34)C[C@H]21 [TBR-760 chloride, Dop2-D-Lys(Dop2)-cyclo[Cys-Tyr-D-Trp-Lys-Abu-Cys]-Thr-NH2 hydrochloride salt]
visible appearance after exposure to visible and UV light ([1]; versus control): did not visibly change | photostability in words (UPLC purity) [1]: as photostable as TBR-760 acetate | Appearance, T = 2 wk [2, 7]: White | Appearance, T = 4 wk [2, 7]: White | Appearance, T = 3 d [2, 7]: White | stability compared with the other salt forms ([2]; 40° C. at 75% RH and 60° C., 2 and 4 weeks, hydrochloride salt): significantly more stable | Appearance, T = 2 wk [2, 8]: White | Appearance, T = 4 wk ([2]; 40° C. at 75% RH, open container, hydrochloride salt): White | Appearance, T = 3 d [2, 8]: White | Appearance, T = 2 wk [2, 9]: White | Appearance, T = 4 wk [2, 9]: White | Appearance, T = 3 d ([2]; 60° C., open dish): White | Purity, T = 2 wk [2, 10]: 98.28 | Purity, T = 4 wk [2, 10]: 98.04 | Purity, T = 3 d [2, 10]: 98.44 | Purity, T = 2 wk [2, 11]: 97.62 | Purity, T = 4 wk [2, 11]: 97.78 | Purity, T = 3 d [2, 11]: 98.36 | Purity, T = 2 wk [2, 12]: 97.58 | Purity, T = 4 wk [2, 12]: 97.17 | Purity, T = 3 d [2, 12]: 98.45 | Purity, Control ([2]; UPLC peak purity, control, stored at -20° C., hydrochloride salt): 98.31 | Appearance, Control ([2]; control, stored at -20° C.): White | additional degradants in chromatogram versus control ([2]; two weeks at 60° C., open dish, UPLC, hydrochloride salt): two | Purity, UV-exposed ([3]; UPLC, UV 200 watt hours/square meter, clear sealed vial, hydrochloride salt): 97.06 | Purity, Control ([3]; UPLC, control in sealed amber vial at -20° C., hydrochloride salt): 98.31 | Purity, Dark Ctrl-UV ([3]; UPLC, dark control in UV chamber, hydrochloride salt): 98.37 | Purity, Dark Crtl-Light ([3]; UPLC, dark control in visible light chamber, hydrochloride salt): 98.33 | Purity, Light-exposed ([3]; UPLC, visible light 1.2 million lux hours, clear sealed vial, hydrochloride salt): 96.41 | stability following UV exposure, in words ([3]; UV 200 watt hours/square meter): more stable following UV exposure than the acetate, mesylate, sulfate, or tosylate salts | Appearance, UV-exposed ([3]; UV 200 watt hours/square meter, clear sealed vial, listed as Chloride, hydrochloride salt): white | Appearance, UV-exposed ([3]; UV 200 watt hours/square meter, clear sealed vial, listed as chloride salt, hydrochloride salt): remained unchanged | Appearance, Control ([3]; control in sealed amber vial at -20° C.): white | Appearance, Dark Ctrl-UV ([3]; dark control in UV chamber, amber vial wrapped in aluminum foil): white | Appearance, Dark Crtl-Light ([3]; dark control in visible light chamber, amber vial wrapped in aluminum foil): white | degradation upon exposure to visible or UV light, in words ([3]; UPLC, hydrochloride salt): more resistant to degradation than TBR-760 acetate | degradation upon exposure to visible or UV light, in words ([3]; UPLC, listed as TBR-760 chloride salt, hydrochloride salt): more stable | stability following light exposure, in words ([3]; visible light 1.2 million lux hours): significantly more stable than the TBR-760 acetate salt | Appearance, Light-exposed ([3]; visible light 1.2 million lux hours, clear sealed vial, listed as Chloride, hydrochloride salt): white | Appearance, Light-exposed ([3]; visible light 1.2 million lux hours, clear sealed vial, listed as chloride, hydrochloride salt): no visible discoloration | compound degraded ([4]; 4 weeks at 60° C. and ambient humidity, hydrochloride salt): less than 0.6% | number of impurities compared with other TBR-760 salts [4, 13]: fewer impurities | percent purity compared with other TBR-760 salts [4, 13]: higher percent purity | thermostability in words ([4]; listed as TBR-760 hydrochloride, hydrochloride salt): thermostable | thermostability in words ([4]; listed as chloride salt form of TBR-760, hydrochloride salt): stable | change in visual appearance ([5]; 8 weeks at 60° C.): no change in the visual appearance | salt form degraded ([5]; 60° C. for 4 weeks): 0.5% | salt form degraded ([5]; 60° C. for 8 weeks): less than 1% | TGA start of decomposition [6]: ~245 °C
